# Source: patent US7015343B2, “Sulphonated dehydrogenated sylvate, the preparation and use” (Shanghai Xingkang Pharmaceuticals Research & Development …, priority 2001, dated 2006)
# What was measured:
# pepsin = assay: Pepsin activity in gastric juice of pylorus-ligated rats (Mett tube method); type: in vivo, Wister rats; settings: for activity of pepsin: n = 8, X ± S; for Inhibition ratio for pepsin activity: versus control group
# Description: (§1) Wister rats (200–250 g), half were male and half were female, were starved for 48 hours and the pylori were ligated. Immediately after ligation, a suspension or solution of a salt in distilled water was administered orally into the stomachs in an amount of 2.0 ml/Kg; while 0.5% MC of the same volume was given to the control group. After administration of the test salt for 5 hours, the rats were killed. Their cardias were ligated and their stomachs were taken out. The gastric juice was collected into centrifuge tube and centrifuged at 2500 rpm for 10 min, the volume after residue removed was recorded as the total volume of the gastric juice. The acidity of gastric juice and pepsin activity were measured with the supernatant of the gastric juice after centrifuging.
# (b) Enzyme assay for pepsin (Mett tube method): 0.5 ml of gastric juice was added exactly into a clean 50 ml flask with a plug, the flask was shaken to get a homogeneous solution, then, 15.0 ml of 0.05 N HCL solution was added in, in the meantime, two 3.0–4.0 cm long Mett tubes were put inside. The flask was plugged, shaken to get a homogeneous solution, left to stand at 37° C. for 24 hours. The length (mm) of the transparent part at the two ends of each Mett tube was measured precisely to get four values. The mean value was based on the four values, and the pepsin activity was calculated. Inhibiting ratio of pepsin activity %=[(pepsin activity of the control group−pepsin activity of the treatment group)/pepsin activity of the control group]×100% Test Result: […]
# [1] = system: gastric juice secretion of Pylorus-ligated rats; assay: Gastric juice secretion and acidity of pylorus-ligated rats after oral administration; type: in vivo, Wister rats; design: T.AC / MEL (10^3) / MEAH: unit not given here; settings: for Total volume of gastric juice: 5 hours after pylorus ligation; for Total volume of gastric juice / MEL (10^3) / MEAH: n = 8, X ± S; for Inhibition ratio for total acid amount / Inhibition to gastric juice secretion: versus control group; for MEL (10^3): acid concentration of gastric juice; for MEAH: total acid amount in gastric juice; for T.AC: volume of 0.01 N NaOH to titrate to pH 7, n = 8, X ± S
# Description: as §1
# (a) Measurement of the acidity of gastric juice: with 0.5 ml of gastric juice taken exactly, about 20 ml of distilled water added in, it was measured with pH meter. The mixture was titrated to pH 7 with 0.01 N NaOH solution, and the volume of 0.01 N NaOH solution used was recorded. Then, the volume (T.AC) was calculated corresponding to titrating to pH 7 with 0.01 N NaOH solution. Acid concentration of gastric juice (MEL)=(T.AC/2)×1000 Total acid amount in gastric juice (MEAH)=MEL×(total volume of gastric juice/1000) Inhibiting ratio on the secretion of gastric juice %=[(volume of the gastric juice of the control group−volume of the gastric juice of the treatment group)/volume of the gastric juice of the control group]×100% Inhibiting ratio on the total acid amount in gastric juice %=[(MEAH of the control group−MEAH of the treatment group)/MEAH of the control group]×100%
# KunMing mice = assay: Acute toxicity of NIPWZ, oral administration to mice (LD50, Bliss's method); type: in vivo; settings: for Death distribution 2 h / Death distribution 4 h / Death distribution 24 h / Death distribution 72 h / Number of death (F:M) / Ratio of death: 10 mice
# Description: 50 second grade KunMing mice were provided, each weighing 20.0±1.2 g, randomly divided into 5 groups, 10 for each group, 5 male and 5 female. Medicine was administered intra-gastrically by 40 ml/Kg once, the solvent was 0.5% MC. The doses for the 5 groups were: 4480 mg/Kg, 3000 mg/Kg, 2010 mg/Kg, 1350 mg/Kg, 910 mg/Kg, the ratio of any two abutted doses was 1:0.67. […] Wherein the LD50 was determined by Bliss's method.
substance,measurement,setting,value
Salts of Sulfodehydroabietic Acid with Bismuth [NIPWB],activity of pepsin,pepsin; oral 50 mg/Kg,0.74 ± 0.61 U
same,Inhibition ratio for pepsin activity,pepsin; oral 50 mg/Kg,50.0%
same,activity of pepsin,pepsin; oral 100 mg/Kg,0.36 ± 0.20 U
same,Inhibition ratio for pepsin activity,pepsin; oral 100 mg/Kg,75.7%
same,Total volume of gastric juice,[1]; oral 50 mg/Kg,6.5 ± 2.5 mL
same,Inhibition ratio for total acid amount,[1]; oral 50 mg/Kg,45.7%
same,Inhibition to gastric juice secretion,[1]; oral 50 mg/Kg,28.6%
same,MEL (10^3),[1]; oral 50 mg/Kg,2.42 ± 1.79
same,MEAH,[1]; oral 50 mg/Kg,15.9 ± 4.5
same,T.AC,[1]; oral 50 mg/Kg,4.85 ± 3.58
same,Total volume of gastric juice,[1]; oral 100 mg/Kg,7.6 ± 2.9 mL
same,Inhibition ratio for total acid amount,[1]; oral 100 mg/Kg,44.4%
same,Inhibition to gastric juice secretion,[1]; oral 100 mg/Kg,16.5%
same,MEL (10^3),[1]; oral 100 mg/Kg,2.16 ± 1.65
same,MEAH,[1]; oral 100 mg/Kg,16.3 ± 4.7
same,T.AC,[1]; oral 100 mg/Kg,4.32 ± 3.30
Salts of Sulfodehydroabietic Acid with Zinc [NIPWZ],activity of pepsin,pepsin; oral 50 mg/Kg,0.88 ± 0.33 U
same,Inhibition ratio for pepsin activity,pepsin; oral 50 mg/Kg,40.5%
same,activity of pepsin,pepsin; oral 100 mg/Kg,0.66 ± 0.34 U
same,Inhibition ratio for pepsin activity,pepsin; oral 100 mg/Kg,55.4%
same,Total volume of gastric juice,[1]; oral 50 mg/Kg,7.2 ± 2.9 mL
same,Inhibition ratio for total acid amount,[1]; oral 50 mg/Kg,52.9%
same,Inhibition to gastric juice secretion,[1]; oral 50 mg/Kg,20.9%
same,MEL (10^3),[1]; oral 50 mg/Kg,1.92 ± 1.47
same,MEAH,[1]; oral 50 mg/Kg,13.8 ± 4.2
same,T.AC,[1]; oral 50 mg/Kg,3.83 ± 2.93
same,Total volume of gastric juice,[1]; oral 100 mg/Kg,7.0 ± 3.1 mL
same,Inhibition ratio for total acid amount,[1]; oral 100 mg/Kg,47.1%
same,Inhibition to gastric juice secretion,[1]; oral 100 mg/Kg,23.1%
same,MEL (10^3),[1]; oral 100 mg/Kg,2.21 ± 1.32
same,MEAH,[1]; oral 100 mg/Kg,15.5 ± 4.1
same,T.AC,[1]; oral 100 mg/Kg,4.41 ± 2.64
same,Death distribution 2 h,"KunMing mice; mice, oral 910 mg/Kg",0
same,Death distribution 4 h,"KunMing mice; mice, oral 910 mg/Kg",0
same,Death distribution 24 h,"KunMing mice; mice, oral 910 mg/Kg",0
same,Death distribution 72 h,"KunMing mice; mice, oral 910 mg/Kg",0
same,Number of death (F:M),"KunMing mice; mice, oral 910 mg/Kg",0 (0:0)
same,Ratio of death,"KunMing mice; mice, oral 910 mg/Kg",0%
same,Death distribution 2 h,"KunMing mice; mice, oral 1350 mg/Kg",0
same,Death distribution 4 h,"KunMing mice; mice, oral 1350 mg/Kg",0
same,Death distribution 24 h,"KunMing mice; mice, oral 1350 mg/Kg",3
same,Death distribution 72 h,"KunMing mice; mice, oral 1350 mg/Kg",1
same,Number of death (F:M),"KunMing mice; mice, oral 1350 mg/Kg",4 (1:3)
same,Ratio of death,"KunMing mice; mice, oral 1350 mg/Kg",40%
same,Death distribution 2 h,"KunMing mice; mice, oral 2010 mg/Kg",0
same,Death distribution 4 h,"KunMing mice; mice, oral 2010 mg/Kg",0
same,Death distribution 24 h,"KunMing mice; mice, oral 2010 mg/Kg",7
same,Death distribution 72 h,"KunMing mice; mice, oral 2010 mg/Kg",0
same,Number of death (F:M),"KunMing mice; mice, oral 2010 mg/Kg",7 (5:2)
same,Ratio of death,"KunMing mice; mice, oral 2010 mg/Kg",70%
same,Death distribution 2 h,"KunMing mice; mice, oral 3000 mg/Kg",0
same,Death distribution 4 h,"KunMing mice; mice, oral 3000 mg/Kg",7
same,Death distribution 24 h,"KunMing mice; mice, oral 3000 mg/Kg",1
same,Death distribution 72 h,"KunMing mice; mice, oral 3000 mg/Kg",0
same,Number of death (F:M),"KunMing mice; mice, oral 3000 mg/Kg",8 (5:3)
same,Ratio of death,"KunMing mice; mice, oral 3000 mg/Kg",80%
same,Death distribution 2 h,"KunMing mice; mice, oral 4480 mg/Kg",7
same,Death distribution 4 h,"KunMing mice; mice, oral 4480 mg/Kg",3
same,Death distribution 24 h,"KunMing mice; mice, oral 4480 mg/Kg",0
same,Death distribution 72 h,"KunMing mice; mice, oral 4480 mg/Kg",0
same,Number of death (F:M),"KunMing mice; mice, oral 4480 mg/Kg",10 (5:5)
same,Ratio of death,"KunMing mice; mice, oral 4480 mg/Kg",100%
same,LD50,"KunMing mice; mice, oral administration, Bliss's method",1728 mg/kg
same,LD50 as multiple of the clinic dose,KunMing mice; taking 1000 mg/day for a 60 Kg human being,approximately 104 times
